Laboratory results from patent US11696937B2, “Glycopeptide compounds having activity of resisting drug-resistant bacteria, and preparation method and application thereof” (priority 2018, dated 2023).
≈ marks a conversion by molar mass, not a printed value.

Tests used:
[1] = test system: ATCC43300 (MRSA); experiment: In vitro antibacterial activity (MIC) against MRSA; type: cell-based, Methicillin-resistant Staphylococcus aureus; settings: for MIC ATCC43300 (MRSA): MRSA strain ATCC43300, method of Pharmacopoeia of the People's Republic of China (2015 edition)
Description: (§1) An antibacterial activity of the compounds in Table 1 is determined in vitro, and a minimum inhibitory concentration (MIC) is read. The determination method refers to the method of the Pharmacopoeia of the People's Republic of China (2015 edition). The MRSA detection strain is purchased from ATCC, and the VRE detection strain is from the clinically isolated drug-resistant strain 07-W3-45 from Shanghai Huashan Hospital. Known antibiotic oritavancin (phosphate) is used for a reference drug.

[2] = test system: Clinical isolates 07-W3-45 (VRE); experiment: In vitro antibacterial activity (MIC) against VRE; type: cell-based, Vancomycin-resistant Enterococcus; settings: for MIC Clinical isolates 07-W3-45 (VRE): clinically isolated drug-resistant strain 07-W3-45 from Shanghai Huashan Hospital
Description: as §1

[3] = test system: wild AB zebrafish; experiment: Zebrafish toxicity test; type: in vivo; settings: intravenous injection, 72 hours of treatment, samples in phosphate form
Description: A zebrafish toxicity test of the compounds in Table 1 is also tested. Randomly select wild AB zebrafish in a six-well plate, and inject each test sample at a dose of 50, 100, 150, 200, and 250 ng/tail intravenously. At the same time, a normal control group and a solvent control group (aqueous phosphoric acid) are set; During this experiment, the death of zebrafish is observed and recorded every day and the dead fish are removed. After 72 hours of treatment, the death of zebrafish is counted. Calculate the LD50 of each test product to zebrafish.
All samples are tested for zebrafish toxicity in phosphate form.

SMILES | MIC ATCC43300 (MRSA) [1] | MIC Clinical isolates 07-W3-45 (VRE) [2] | Zebrafish LD50 [3] | MIC ([1]; Staphylococcus aureus, read-out: MIC ATCC43300 (MRSA)) | MIC ([2]; Enterococcus, VRE, read-out: MIC Clinical isolates 07-W3-45 (VRE))
CNC(CC(C)C)C(=O)NC1C(=O)NC(CC(N)=O)C(=O)NC2C(=O)NC3C(=O)NC(C(=O)NC(C(=O)O)c4cc(O)cc(O)c4-c4cc3ccc4O)C(OC3CC(C)(N)C(O)C(C)O3)c3ccc(c(Cl)c3)Oc3cc2cc(c3OC2OC(CO)C(O)C(O)C2OC2CC(C)(NCc3ccc(NCCc4ccccc4)cc3)C(O)C(C)O2)Oc2ccc(cc2Cl)C1O (stereo not drawn) [Compound 20] | 0.5 µg/mL (≈ 0.278 µM) | 2 µg/mL (≈ 1.11 µM) | 189 ng/tail |  | 
CNC(CC(C)C)C(=O)NC1C(=O)NC(CC(N)=O)C(=O)NC2C(=O)NC3C(=O)NC(C(=O)NC(C(=O)O)c4cc(O)cc(O)c4-c4cc3ccc4O)C(OC3CC(C)(N)C(O)C(C)O3)c3ccc(c(Cl)c3)Oc3cc2cc(c3OC2OC(CO)C(O)C(O)C2OC2CC(C)(NCc3ccc(NCCCc4ccc(Cl)cc4)cc3)C(O)C(C)O2)Oc2ccc(cc2Cl)C1O (stereo not drawn) [Compound 25] | 0.064 µg/mL (≈ 0.0346 µM) | 0.25 µg/mL (≈ 0.135 µM) | 97 ng/tail |  | 
CNC(CC(C)C)C(=O)NC1C(=O)NC(CC(N)=O)C(=O)NC2C(=O)NC3C(=O)NC(C(=O)NC(C(=O)O)c4cc(O)cc(O)c4-c4cc3ccc4O)C(OC3CC(C)(N)C(O)C(C)O3)c3ccc(c(Cl)c3)Oc3cc2cc(c3OC2OC(CO)C(O)C(O)C2OC2CC(C)(NCc3ccc(OCc4ccc(Cl)cc4)cc3)C(O)C(C)O2)Oc2ccc(cc2Cl)C1O (stereo not drawn) [Compound 5] | 0.5 µg/mL (≈ 0.274 µM) | 2 µg/mL (≈ 1.1 µM) | 180 ng/tail |  | 
CNC(CC(C)C)C(=O)NC1C(=O)NC(CC(N)=O)C(=O)NC2C(=O)NC3C(=O)NC(C(=O)NC(C(=O)O)c4cc(O)cc(O)c4-c4cc3ccc4O)C(OC3CC(C)(N)C(O)C(C)O3)c3ccc(c(Cl)c3)Oc3cc2cc(c3OC2OC(CO)C(O)C(O)C2OC2CC(C)(NCc3ccc(NCc4ccc(C)cc4)cc3)C(O)C(C)O2)Oc2ccc(cc2Cl)C1O (stereo not drawn) [Compound 18] | 0.5 µg/mL (≈ 0.278 µM) | 1 µg/mL (≈ 0.555 µM) | 128 ng/tail |  | 
CNC(CC(C)C)C(=O)NC1C(=O)NC(CC(N)=O)C(=O)NC2C(=O)NC3C(=O)NC(C(=O)NC(C(=O)O)c4cc(O)cc(O)c4-c4cc3ccc4O)C(OC3CC(C)(N)C(O)C(C)O3)c3ccc(c(Cl)c3)Oc3cc2cc(c3OC2OC(CO)C(O)C(O)C2OC2CC(C)(NCc3ccc(NCc4ccccc4)cc3)C(O)C(C)O2)Oc2ccc(cc2Cl)C1O (stereo not drawn) [Compound 17] | 0.5 µg/mL (≈ 0.28 µM) | 1 µg/mL (≈ 0.559 µM) | 139 ng/tail |  | 
CN[C@H](CC(C)C)C(=O)N[C@H]1C(=O)N[C@@H](CC(N)=O)C(=O)N[C@H]2C(=O)N[C@H]3C(=O)N[C@H](C(=O)N[C@H](C(=O)O)c4cc(O)cc(O)c4-c4cc3ccc4O)[C@H](O[C@H]3C[C@](C)(N)[C@@H](O)[C@H](C)O3)c3ccc(c(Cl)c3)Oc3cc2cc(c3O[C@@H]2O[C@H](CO)[C@@H](O)[C@H](O)[C@H]2O[C@H]2C[C@](C)(NCc3ccc(-c4ccc(Cl)cc4)cc3)[C@@H](O)[C@H](C)O2)Oc2ccc(cc2Cl)[C@H]1O [Orivancin, oritavancin, reference compound] |  |  | 89.4 ng/tail | 0.5 µg/mL (≈ 0.279 µM) | 2 µg/mL (≈ 1.12 µM)
CNC(CC(C)C)C(=O)NC1C(=O)NC(CC(N)=O)C(=O)NC2C(=O)NC3C(=O)NC(C(=O)NC(C(=O)O)c4cc(O)cc(O)c4-c4cc3ccc4O)C(OC3CC(C)(N)C(O)C(C)O3)c3ccc(c(Cl)c3)Oc3cc2cc(c3OC2OC(CO)C(O)C(O)C2OC2CC(C)(NCc3ccc(OCCc4ccc(F)cc4)cc3)C(O)C(C)O2)Oc2ccc(cc2Cl)C1O (stereo not drawn) [Compound 7] | 0.5 µg/mL (≈ 0.275 µM) | 1 µg/mL (≈ 0.549 µM) | 97 ng/tail |  | 
